Source: US20260231939A1, “ARTHROPOD CONTROL COMPOSITIONS” (Firmenich SA, priority 2022, published 2026)
Where two headings read alike, the source gives them in different places.

System: Aedes aegypti
Assay: Warm Body assay, mosquito landings on the baited warm body
Type: in vivo
Settings: for pest or weed control at 16 µg/mL / pest or weed control at 400 µg/mL / pest or weed control at 10000 µg/mL: Aedes aegypti, read-out: Percentage of repellence of mosquitoes landing on the warm body; for mosquitoes that still land on the warm body: 10 mg/mL (1 mg absolute applied)
Procedure: The controlling effect according to the present invention was assessed using an adapted Warm Body assay as defined in Kröber T, Kessler S, Frei J, Bourquin M, Guerin P M. 2010. J Am Mosq Control Assoc. 26:381-386. In this in-vitro assay the number of mosquito landing on a warm body, simulating an attractive host treated with the tested stimuli, was measured in order to assess the repellence effect.
The published protocol has been adapted as the switch from Anopheles gambiae to Ae. aegypti led to a decrease of mosquitoes placed in the tested cage due to the size difference (i.e. 30 mosquitoes instead of 50) and to an increase of lighting since Ae. aegypti is a diurnal mosquitoes (i.e. 150 lux instead of 4 lux).
On the sandblasted glass Petri dish covering the warm body (28.3 cm^2), 100 μL of the compounds diluted at different concentrations in ethanol was applied. The number of mosquito landing on the warm body was counted for each stimulus. Number of landings on pure ethanol (solvent) control treatment was used to normalize the data and calculate the percentage of repellence.

[1] = γ-lactones, 0.016 mg/mL in ethanol
[2] = γ-lactones, 0.4 mg/mL in ethanol
[3] = γ-lactones, 10 mg/mL in ethanol

`CC1CCC(=O)O1` (centres unmarked) [5-methyloxolan-2-one] showed a pest or weed control at 16 µg/mL [1] of 0%, a pest or weed control at 400 µg/mL [2] of 43% and a pest or weed control at 10000 µg/mL [3] of 2%.
With `CCCCCCC=CC1CCC(=O)O1` (centres unmarked) [5-oct-1-enyloxolan-2-one] the pest or weed control at 16 µg/mL [1] was 0%, the pest or weed control at 400 µg/mL [2] was 60% and the pest or weed control at 10000 µg/mL [3] was 98%.
Work on `CCCCCC=CCC1CCC(=O)O1` (centres unmarked) [5-oct-2-enyloxolan-2-one] yielded a pest or weed control at 16 µg/mL [1] of 85%, a pest or weed control at 400 µg/mL [2] of 100% and a pest or weed control at 10000 µg/mL [3] of 96%.
In the case of `CCCCC=CCCC1CCC(=O)O1` (centres unmarked) [5-oct-3-enyloxolan-2-one], the pest or weed control at 16 µg/mL [1] is reported as 31%, the pest or weed control at 400 µg/mL [2] is reported as 76% and the pest or weed control at 10000 µg/mL [3] is reported as 92%.
Work on `CC=CCCCCCC1CCC(=O)O1` (centres unmarked) [5-oct-6-enyloxolan-2-one] yielded a pest or weed control at 16 µg/mL [1] of 12%, a pest or weed control at 400 µg/mL [2] of 78% and a pest or weed control at 10000 µg/mL [3] of 100%.
`C=CCCCCCCC1CCC(=O)O1` (centres unmarked) [5-oct-7-enyloxolan-2-one] showed a pest or weed control at 16 µg/mL [1] of 46%, a pest or weed control at 400 µg/mL [2] of 69% and a pest or weed control at 10000 µg/mL [3] of 80%.
With `CCCCCCCCC1CCC(=O)O1` (centres unmarked) [5-octyloxolan-2-one] the pest or weed control at 16 µg/mL [1] was 12%, the pest or weed control at 400 µg/mL [2] was 52% and the pest or weed control at 10000 µg/mL [3] was 45%.
In the case of `CCCC=CC1CCC(=O)O1` (centres unmarked) [5-pent-1-enyloxolan-2-one], the pest or weed control at 16 µg/mL [1] is reported as 52%, the pest or weed control at 400 µg/mL [2] is reported as 79% and the pest or weed control at 10000 µg/mL [3] is reported as 100%.
`CC=CCCC1CCC(=O)O1` (centres unmarked) [5-pent-3-enyloxolan-2-one] was tested, and the pest or weed control at 16 µg/mL [1] was 0%, the pest or weed control at 400 µg/mL [2] was 95% and the pest or weed control at 10000 µg/mL [3] was 100%.
Molecule `CCCCCC1=COC(=O)CC1` [5-pentyl-3,4-dihydro-2H-pyran-2-one] has a pest or weed control at 16 µg/mL (more complex lactones (types A, B, C), 0.016 mg/mL) of 60%, a pest or weed control at 400 µg/mL (more complex lactones (types A, B, C), 0.4 mg/mL) of 69% and a pest or weed control at 10000 µg/mL (more complex lactones (types A, B, C), 10 mg/mL) of 97%.
Molecule `CCCCCC1CCC(=O)O1` (centres unmarked) [5-pentyloxolan-2-one] has a pest or weed control at 16 µg/mL [1] of 9%, a pest or weed control at 400 µg/mL [2] of 56% and a pest or weed control at 10000 µg/mL [3] of 99%.
In the case of `CCCC1CCC(=O)O1` (centres unmarked) [5-propyloxolan-2-one], the pest or weed control at 16 µg/mL [1] is reported as 28%, the pest or weed control at 400 µg/mL [2] is reported as 50% and the pest or weed control at 10000 µg/mL [3] is reported as 100%.
For `C=CC1CCCC(=O)O1` (centres unmarked) [6-ethenyloxan-2-one], the “mosquitoes that still land on the warm body” value was “prevents any mosquito from landing”, the pest or weed control at 16 µg/mL (δ-lactones, 0.016 mg/mL) was 31% and the pest or weed control at 400 µg/mL (δ-lactones, 0.4 mg/mL) was 30%. For the same molecule, the pest or weed control at 10000 µg/mL (δ-lactones, 10 mg/mL) was 100%.
In the case of `CCC1CCCC(=O)O1` (centres unmarked) [6-ethyloxan-2-one], the “mosquitoes that still land on the warm body” value is reported as > 50%, the pest or weed control at 16 µg/mL (δ-lactones, 0.016 mg/mL) is reported as 0% and the pest or weed control at 400 µg/mL (δ-lactones, 0.4 mg/mL) is reported as 11%. It also gave a pest or weed control at 10000 µg/mL (δ-lactones, 10 mg/mL) of 48%.
`CCC#CCCC1CCCC(=O)O1` (centres unmarked) [6-hex-3-ynyloxan-2-one] was tested, and the pest or weed control at 16 µg/mL (δ-lactones, 0.016 mg/mL) was 0%, the pest or weed control at 400 µg/mL (δ-lactones, 0.4 mg/mL) was 80% and the pest or weed control at 10000 µg/mL (δ-lactones, 10 mg/mL) was 97%.
`CCCCCCC1CCCC(=O)O1` (centres unmarked) [6-hexyloxan-2-one] was tested, and the pest or weed control at 16 µg/mL (δ-lactones, 0.016 mg/mL) was 0%, the pest or weed control at 400 µg/mL (δ-lactones, 0.4 mg/mL) was 76% and the pest or weed control at 10000 µg/mL (δ-lactones, 10 mg/mL) was 91%.
In the case of `CCCCCC1CCCC(=O)O1` (centres unmarked) [6-pentyloxan-2-one], the pest or weed control at 16 µg/mL (δ-lactones, 0.016 mg/mL) is reported as 0%, the pest or weed control at 400 µg/mL (δ-lactones, 0.4 mg/mL) is reported as 91% and the pest or weed control at 10000 µg/mL (δ-lactones, 10 mg/mL) is reported as 98%.
`C=CCCC1CCCCC(=O)O1` (centres unmarked) [7-but-3-enyloxepan-2-one] was tested, and the pest or weed control at 16 µg/mL (β- and ε-lactones, 0.016 mg/mL) was 43%, the pest or weed control at 400 µg/mL (β- and ε-lactones, 0.4 mg/mL) was 75% and the pest or weed control at 10000 µg/mL (β- and ε-lactones, 10 mg/mL) was 99%.
`O=C1CCCCC(C2CCCCC2)O1` (centres unmarked) [7-cyclohexyloxepan-2-one] was tested, and the pest or weed control at 16 µg/mL (β- and ε-lactones, 0.016 mg/mL) was 0%, the pest or weed control at 400 µg/mL (β- and ε-lactones, 0.4 mg/mL) was 10% and the pest or weed control at 10000 µg/mL (β- and ε-lactones, 10 mg/mL) was 26%.
With `C=CCCCC1CCCCC(=O)O1` (centres unmarked) [7-pent-4-enyloxepan-2-one] the pest or weed control at 400 µg/mL (β- and ε-lactones, 0.4 mg/mL) was 95%, the pest or weed control at 10000 µg/mL (β- and ε-lactones, 10 mg/mL) was 100% and the “Percentage of repellence of mosquitoes landing on the warm body” value (β- and ε-lactones, 0.4 mg/mL) was 95%.
`CCCCCC1CCCCC(=O)O1` (centres unmarked) [7-pentyloxepan-2-one] was tested, and the pest or weed control at 400 µg/mL (β- and ε-lactones, 0.4 mg/mL) was 52%, the pest or weed control at 10000 µg/mL (β- and ε-lactones, 10 mg/mL) was 98% and the “Percentage of repellence of mosquitoes landing on the warm body” value (β- and ε-lactones, 0.4 mg/mL) was 52%.
`CC(C)(C)C1CCCCC(=O)O1` (centres unmarked) [7-tert-butyloxepan-2-one] gave a pest or weed control at 16 µg/mL (β- and ε-lactones, 0.016 mg/mL) of 0%, a pest or weed control at 400 µg/mL (β- and ε-lactones, 0.4 mg/mL) of 0% and a pest or weed control at 10000 µg/mL (β- and ε-lactones, 10 mg/mL) of 66%.
Work on `CCC=CC[C@H]1CCCC(=O)O1` [(6R)-6-pent-2-enyloxan-2-one] yielded a pest or weed control at 16 µg/mL (δ-lactones, 0.016 mg/mL) of 78%, a pest or weed control at 400 µg/mL (δ-lactones, 0.4 mg/mL) of 100% and a pest or weed control at 10000 µg/mL (δ-lactones, 10 mg/mL) of 98%.
